Assay results reported in ChEMBL document CHEMBL4376892, “Identification of Parthenolide Dimers as Activators of Pyruvate Kinase M2 in Xenografts of Glioblastoma Multiforme in Vivo” (J Med Chem, 2020).
Activity calls are given as the source filed them. No cut-off for these calls is given here.

Columns and labels:
Pyruvate kinase PKM [1] = target: T1, Pyruvate kinase PKM (Homo sapiens, UniProt P14618); assay: Activation of PKM2 in human U87 cells assessed as inhibition of STAT3 phosphorylation at 1 to 2 uM after 24 hrs by Western blot analysis; assay type: cell-based; conditions: U-87MG ATCC
T1 sequence (P14618 2-531 limits assumed): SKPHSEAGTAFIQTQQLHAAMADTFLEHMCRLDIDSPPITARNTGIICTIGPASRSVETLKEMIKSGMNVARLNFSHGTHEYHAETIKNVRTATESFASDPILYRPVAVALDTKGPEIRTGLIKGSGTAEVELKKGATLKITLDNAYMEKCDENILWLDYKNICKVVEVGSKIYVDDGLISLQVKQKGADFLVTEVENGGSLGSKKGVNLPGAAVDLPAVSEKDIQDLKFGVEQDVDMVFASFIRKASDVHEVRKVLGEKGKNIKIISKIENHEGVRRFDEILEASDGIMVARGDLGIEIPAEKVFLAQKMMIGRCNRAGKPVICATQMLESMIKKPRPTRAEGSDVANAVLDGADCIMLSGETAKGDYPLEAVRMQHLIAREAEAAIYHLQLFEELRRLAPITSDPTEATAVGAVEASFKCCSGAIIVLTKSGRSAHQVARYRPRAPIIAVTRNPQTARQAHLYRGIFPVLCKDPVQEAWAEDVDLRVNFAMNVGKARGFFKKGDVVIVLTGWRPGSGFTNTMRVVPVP

U-118-MG [2] = assay: Induction of apoptosis in human U118MG cells assessed as necrotic cells after 48 hrs by Annexin-V-FITC/PI-staining based flow cytometric analysis (reference value: 1.37%); assay type: functional
Pyruvate kinase PKM [3] = target: T1, Pyruvate kinase PKM; assay: Binding affinity to recombinant human N-terminal 6His-tagged PKM2 expressed in Escherichia coli BL21 cells assessed as increase in thermal stability of enzyme at melting temperature of 42 to 56 degC at 10 to 50 uM by western blot analysis
U-118-MG [4] = assay: Induction of PDK4 protein expression in human U118MG cells at 2 uM after 48 hrs by Western blot analysis; assay type: functional, cell-based
U-118-MG [5] = assay: Antiinvasive activity against human U118MG cells transfected with lentivirus expressing shNC at 2 uM incubated for 48 hrs by crystal violet staining based transwell assay; assay type: functional, cell-based
U-87 MG [6] = assay: Antimigratory activity against human U87 cells transfected with lentivirus expressing shPKM2 at 2 uM incubated for 48 hrs by crystal violet staining based transwell assay; assay type: functional, cell-based; conditions: U-87MG ATCC
C6 = assay: Antiproliferative activity against rat C6 cells assessed as reduction in cell viability after 72 hrs by MTT assay; assay type: functional, cell-based; conditions: C6, 72 h
U-118-MG [7] = assay: Antimigratory activity against human U118MG cells transfected with lentivirus expressing shPKM2 at 2 uM incubated for 48 hrs by crystal violet staining based transwell assay; assay type: functional, cell-based
U-87 MG [8] = assay: Induction of apoptosis in human U87 cells transfected with lentivirus expressing shPKM2 assessed as necrotic cells after 48 hrs by Annexin-V-FITC/PI-staining based flow cytometric analysis (reference value: 0.580%); assay type: functional, U-87MG ATCC
U-118-MG [9] = assay: Induction of apoptosis in human U118MG cells transfected with lentivirus expressing shPKM2 assessed as necrotic cells after 48 hrs by Annexin-V-FITC/PI-staining based flow cytometric analysis (reference value: 0.105%); assay type: functional
U-87 MG [10] = assay: Induction of apoptosis in human U87 cells transfected with lentivirus expressing shPKM2 assessed as early apoptotic cells after 48 hrs by Annexin-V-FITC/PI-staining based flow cytometric analysis (reference value: 0.88%); assay type: functional, U-87MG ATCC
U-118-MG [11] = assay: Antimigratory activity against human U118MG cells transfected with lentivirus expressing shNC at 2 uM incubated for 48 hrs by crystal violet staining based transwell assay; assay type: functional, cell-based
U-87 MG [12] = assay: Induction of apoptosis in human U87 cells assessed as necrotic cells after 48 hrs by Annexin-V-FITC/PI-staining based flow cytometric analysis (reference value: 0.1%); assay type: functional, U-87MG ATCC
U-87 MG [13] = assay: Antiinvasive activity against human U87 cells transfected with lentivirus expressing shPKM2 at 2 uM incubated for 48 hrs by crystal violet staining based transwell assay; assay type: functional, cell-based; conditions: U-87MG ATCC
U-118-MG [14] = assay: Antimetastatic activity against human U118MG cells assessed as reduction in cell migration at 2 uM after 24 hrs by crystal violet staining based transwell assay; assay type: functional
Pyruvate kinase PKM [15] = target: T1, Pyruvate kinase PKM; assay: Activation of recombinant human N-terminal 6His-tagged PKM2 expressed in Escherichia coli BL21 cells at 10 uM after 30 mins by fluorescence based analysis relative to control
Pyruvate kinase PKM [16] = target: T1, Pyruvate kinase PKM; assay: Activation of PKM2 in human U118MG cells assessed as reduction in vimentin expression at 1 to 2 uM after 24 hrs by Western blot analysis; assay type: cell-based
U-118-MG [17] = assay: Antiproliferative activity against human U118MG cells transfected with lentivirus expressing shPKM2 assessed as as reduction in cell viability after 24 hrs by MTT assay; assay type: functional, cell-based
U-87 MG [18] = assay: Antiproliferative activity against human U87 cells transfected with lentivirus expressing shPKM2 assessed as reduction in cell viability after 24 hrs by MTT assay; assay type: functional, cell-based, U-87MG ATCC
U-118-MG [19] = assay: Induction of apoptosis in human U118MG cells assessed as early apoptotic cells after 48 hrs by Annexin-V-FITC/PI-staining based flow cytometric analysis (reference value: 1.35%); assay type: functional
U-87MG ATCC = assay: Induction of PDK4 protein expression in human U87 cells at 5 uM after 48 hrs by Western blot analysis; assay type: functional, cell-based
U-87 MG [20] = assay: Antiproliferative activity against human U87 cells transfected with lentivirus expressing shNC assessed as reduction in cell viability after 24 hrs by MTT assay; assay type: functional, cell-based, U-87MG ATCC
U-118-MG [21] = assay: Effect on IKK-beta protein expression in human U118MG cells at 0.2 to 0.5 uM after 48 hrs by Western blot analysis; assay type: functional, cell-based

## C=C1C(=O)O[C@H]2[C@H]1CC/C(C(=O)OCCOCCOC(=O)/C1=C/CC[C@@]3(C)O[C@H]3[C@H]3OC(=O)C(=C)[C@@H]3CC1)=C\CC[C@@]1(C)O[C@@H]21
Pyruvate kinase PKM [1]
  Activity: Active
U-118-MG [2]
  Activity: 6.01%
Pyruvate kinase PKM [3]
  Activity: Active
U-118-MG [4]
  Activity: Active
U-118-MG [5]
  Activity: Active
U-87 MG [6]
  Activity: inactive
C6
  IC50: 1660 nM
U-118-MG [7]
  Activity: inactive
U-87 MG [8]
  Activity: 0.539%
U-118-MG [9]
  Activity: 0.09%
U-87 MG [10]
  Activity: 3.74%
U-118-MG [11]
  Activity: Active
U-87 MG [12]
  Activity: 0.256%
U-87 MG [13]
  Activity: inactive
U-118-MG [14]
  Activity: Active
Pyruvate kinase PKM [15]
  fold change (FC): > 2
Pyruvate kinase PKM [16]
  Activity: Active
U-118-MG [17]
  IC50: 1980 nM
U-87 MG [18]
  IC50: 1760 nM
U-118-MG [19]
  Activity: 39.4%
U-87MG ATCC
  Activity: Active
U-87 MG [20]
  IC50: 7.39 µM
U-118-MG [21]
  Activity: inactive
